Some test systems named below: CCRF-CEM; SN12C; Malme-3M; HT-29; COLO 205; SF-539; UACC-257; HOP-92; SK-MEL-28; SNB-75; HOP-62; MOLT-4; NCI-H460; UACC-62; M14; RPMI-8226; OVCAR-5; A498.
Assay in all cases: inhibition of tumour cell growth, NCI panel, 48 h

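A five-concentration, 48-hour dose response in 96-well plates underlies each endpoint, interpolated linearly between surrounding concentrations. At the GI50, growth is halved.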 Calls of active or inactive are those of the source. Cut-off read from the data, not from the text of the source: active = GI50 up to about 1.1 µM and inactive = higher.

13 molecules from ChEMBL document CHEMBL1201862, “PubChem BioAssay data set” (2004) can be followed below.

In the case of `CCC(CC)NC1=C(NC(C)=O)C(=O)c2ccccc2C1=O`, the GI50 with CCRF-CEM is > 50 µM (inactive); with SN12C, > 50 µM (inactive); in the assay with Malme-3M, 45.4 µM (inactive); in the assay with HT-29, > 50 µM (inactive); in the assay on COLO 205, > 50 µM (inactive); with SF-539, > 50 µM (inactive). The GI50 with UACC-257 is > 50 µM (inactive); with HOP-92, 0.339 µM (active); in the assay on SK-MEL-28, > 50 µM (inactive); with SNB-75 it was > 50 µM (inactive); with HOP-62, > 50 µM (inactive); in the assay on MOLT-4 it was > 50 µM (inactive). The GI50 with NCI-H460, in the assay on UACC-62 and in the assay with M14 was > 50 µM (inactive) in each case.
Turning to `C=CCCC(C)N(C(=O)OC(C)(C)C)S(=O)(=O)c1ccc(C)cc1` (stereo unspecified), the GI50 with RPMI-8226, in the assay with SN12C, with Malme-3M, with HT-29, in the assay with COLO 205 and in the assay on SF-539 was > 100 µM (inactive) in each case. The GI50 is > 100 µM (inactive) in the assay with UACC-257; 40.2 µM (inactive) in the assay with HOP-92; > 100 µM (inactive) in the assay with SK-MEL-28; > 100 µM (inactive) in the assay on SNB-75; > 100 µM (inactive) in the assay on HOP-62; > 100 µM (inactive) in the assay with OVCAR-5. Besides, the GI50 in the assay on MOLT-4 was 97.1 µM (inactive); in the assay on NCI-H460, > 100 µM (inactive); in the assay with UACC-62, 77.4 µM (inactive); in the assay with M14, > 100 µM (inactive).
On to `CCOC(=O)/C(=C/c1ccc(N(C)C)cc1)N(CC)CC`, for which the GI50 is 26.1 µM (inactive) in the assay with RPMI-8226; 27 µM (inactive) in the assay with CCRF-CEM; 84.7 µM (inactive) with SN12C; > 100 µM (inactive) with Malme-3M; > 100 µM (inactive) in the assay on COLO 205; > 100 µM (inactive) in the assay with SF-539. The GI50 was 35.8 µM (inactive) in the assay on UACC-257; > 100 µM (inactive) in the assay with HOP-92; > 100 µM (inactive) with SK-MEL-28; > 100 µM (inactive) in the assay with HOP-62; > 100 µM (inactive) with OVCAR-5; 32.2 µM (inactive) with MOLT-4. The values for the GI50 in the assay with UACC-62 and in the assay on M14 were 74.5 µM (inactive) and > 100 µM (inactive), respectively.
In the case of `CCN1CCC(O)(/C=C/c2ccccc2)C(C(=O)/C=C/c2ccccc2)C1` (stereo unspecified), the GI50 in the assay with SN12C is 1.79 µM (inactive); with Malme-3M, 2.26 µM (inactive); in the assay on HT-29 it was 1.76 µM (inactive); in the assay with COLO 205, 1.77 µM (inactive); with SF-539, 1.91 µM (inactive); in the assay with UACC-257, 1.98 µM (inactive). Besides, the GI50 in the assay on HOP-92 is 2.64 µM (inactive); in the assay with A498, 6.21 µM (inactive); in the assay on SK-MEL-28, 1.89 µM (inactive); in the assay on SNB-75, 6.4 µM (inactive); with HOP-62, 13.9 µM (inactive); with OVCAR-5, 3.06 µM (inactive). Besides, the GI50 was 2.21 µM (inactive) in the assay with MOLT-4, 1.95 µM (inactive) in the assay on NCI-H460, 1.71 µM (inactive) in the assay on UACC-62 and 2.09 µM (inactive) in the assay with M14.
Turning to `COC(=O)c1ccc2n[se]nc2c1`, the GI50 with RPMI-8226, in the assay with CCRF-CEM, with SN12C, in the assay with Malme-3M, in the assay on HT-29 and in the assay with SF-539 was > 100 µM (inactive) in each case. The GI50 in the assay on UACC-257 is > 100 µM (inactive); in the assay on A498, > 100 µM (inactive); with SK-MEL-28, > 100 µM (inactive); in the assay with SNB-75, 83.6 µM (inactive); with HOP-62, > 100 µM (inactive); with OVCAR-5 it was > 100 µM (inactive). The GI50 in the assay with MOLT-4, in the assay with NCI-H460, in the assay with UACC-62 and in the assay on M14 was > 100 µM (inactive) throughout.
As for `O=C1C(=O)C2(CC1S(=O)(=O)c1ccccc1)c1ccccc1-c1ccccc12` (stereo unspecified), the GI50 is 26.4 µM (inactive) with RPMI-8226; 24.7 µM (inactive) in the assay with CCRF-CEM; 28.8 µM (inactive) with SN12C; > 10 µM (inactive) in the assay with Malme-3M; 27 µM (inactive) with HT-29; 12.7 µM (inactive) with COLO 205. Further, the GI50 was 17.8 µM (inactive) in the assay on UACC-257; 19.1 µM (inactive) in the assay on A498; 19.7 µM (inactive) with SK-MEL-28; 37.3 µM (inactive) with SNB-75; 21.1 µM (inactive) with HOP-62; 23 µM (inactive) with OVCAR-5. Also, the GI50 in the assay on MOLT-4 is 20.4 µM (inactive); with NCI-H460 it was 18.6 µM (inactive); in the assay with UACC-62, 16.6 µM (inactive); with M14, 13.9 µM (inactive).
Regarding `O=C(Nc1ccccc1SC(/C=C/NNC1=NN=C(c2ccccc2)C(c2ccccc2)N1)c1ccccc1)c1ccc(Cl)cc1Cl` (stereo unspecified), the GI50 in the assay with RPMI-8226 is 58.6 µM (inactive); in the assay with CCRF-CEM, 48.8 µM (inactive); in the assay with SN12C it was 32.6 µM (inactive); in the assay with Malme-3M it was > 100 µM (inactive); in the assay on HT-29 it was > 100 µM (inactive); in the assay on COLO 205, > 100 µM (inactive). For the same molecule, the GI50 is 23.3 µM (inactive) in the assay on SF-539; > 100 µM (inactive) in the assay on UACC-257; 43.5 µM (inactive) in the assay on A498; 38.8 µM (inactive) in the assay with SK-MEL-28; 52.4 µM (inactive) in the assay on SNB-75; 27.3 µM (inactive) in the assay with HOP-62. Besides, the GI50 with OVCAR-5 was 44.8 µM (inactive); with MOLT-4, > 10 µM (inactive); in the assay on NCI-H460, 42.7 µM (inactive); with UACC-62, 36.8 µM (inactive).
Take `COc1ccc(NC(=O)CC(=O)N/N=C/c2ccc(N(CCC#N)S(C)(=O)=O)cc2)cc1`: the GI50 with RPMI-8226, with CCRF-CEM, with SN12C, in the assay on Malme-3M, with HT-29 and in the assay on COLO 205 was > 100 µM (inactive) throughout. The GI50 in the assay on SF-539, with A498, in the assay on SK-MEL-28, in the assay on SNB-75, in the assay on HOP-62 and with OVCAR-5 was > 100 µM (inactive) throughout. Moreover, the GI50 in the assay on MOLT-4, in the assay with NCI-H460, in the assay with UACC-62 and in the assay with M14 was > 100 µM (inactive) in each case.
As to `CC(=O)OC12C=CC(=O)N1c1ccccc1C(=O)O2` (stereo unspecified), the GI50 with RPMI-8226 is > 100 µM (inactive); in the assay with CCRF-CEM it was > 100 µM (inactive); in the assay with SN12C, > 100 µM (inactive); with Malme-3M, 0.962 µM (active); with HT-29, > 100 µM (inactive); in the assay with COLO 205, > 100 µM (inactive). The GI50 in the assay with SF-539, with UACC-257, with HOP-92, in the assay on SK-MEL-28, with SNB-75 and in the assay on HOP-62 was > 100 µM (inactive) throughout. Moreover, the GI50 in the assay on OVCAR-5, in the assay on MOLT-4, in the assay on NCI-H460, in the assay with UACC-62 and in the assay on M14 was > 100 µM (inactive) in each case.
For the molecule `O=C1c2ccccc2C(=O)N1CCN(CCN1C(=O)c2ccccc2C1=O)Cn1cccn1`, the GI50 in the assay on RPMI-8226 was 29.2 µM (inactive); in the assay with CCRF-CEM, 32.7 µM (inactive); in the assay with SN12C, > 100 µM (inactive); in the assay with COLO 205, > 100 µM (inactive); in the assay with UACC-257 it was > 100 µM (inactive); in the assay on HOP-92 it was > 100 µM (inactive). Moreover, the GI50 in the assay on A498 was > 100 µM (inactive); in the assay with SK-MEL-28 it was 73.8 µM (inactive); with SNB-75 it was 87.3 µM (inactive); in the assay on HOP-62, > 100 µM (inactive); in the assay with MOLT-4, > 100 µM (inactive); in the assay on NCI-H460 it was 84.3 µM (inactive). Also, the results for the GI50 in the assay on UACC-62 and in the assay with M14 were 28.2 µM (inactive) and > 100 µM (inactive), respectively.
Consider `Cc1cc(NS(=O)(=O)c2ccc(Nc3c4ccccc4nc4c(C(=O)NCCN(C)C)cccc34)cc2)no1`, for which the GI50 was 1.08 µM (active) in the assay with CCRF-CEM; 3.01 µM (inactive) with SN12C; 6.03 µM (inactive) in the assay on HT-29; 6.12 µM (inactive) in the assay on COLO 205; 2.12 µM (inactive) with SF-539; 10.9 µM (inactive) with SK-MEL-28. Moreover, the GI50 in the assay with SNB-75 was 4.09 µM (inactive); with HOP-62, 2.09 µM (inactive); with OVCAR-5, 17.9 µM (inactive); with MOLT-4, 0.208 µM (active); with NCI-H460 it was 0.685 µM (active); with UACC-62, 2.55 µM (inactive). In the assay with M14, the GI50 was 5.08 µM (inactive).
As to `C=CC1(C)CCC(C(C)C(=O)C(C=C(C)C)OC(C)=O)C12C(=O)Oc1ccccc1C2=O` (stereo unspecified), the GI50 in the assay with RPMI-8226 is 23.7 µM (inactive); in the assay on CCRF-CEM, 27 µM (inactive); in the assay with SN12C, 49.4 µM (inactive); in the assay on Malme-3M, 48.5 µM (inactive); in the assay with HT-29 it was 35.3 µM (inactive); in the assay on COLO 205, 29.4 µM (inactive). Moreover, the GI50 is > 100 µM (inactive) in the assay with SF-539; 35 µM (inactive) in the assay with UACC-257; 40.2 µM (inactive) in the assay on HOP-92; > 100 µM (inactive) with SK-MEL-28; 52.5 µM (inactive) in the assay on SNB-75; 35.2 µM (inactive) with HOP-62. The GI50 with MOLT-4 is 26.2 µM (inactive); with NCI-H460, 29.6 µM (inactive); in the assay with UACC-62, 49 µM (inactive); in the assay with M14, 54.2 µM (inactive).
In the case of `COC(=O)C1[C@@H](C(=O)OC)C12C=Cc1ccccc1C=C2` (stereo partly specified), the GI50 in the assay on RPMI-8226, in the assay with CCRF-CEM, in the assay on SN12C, in the assay with Malme-3M, in the assay on COLO 205 and in the assay with SF-539 was > 100 µM (inactive) in each case. Also, the GI50 was > 100 µM (inactive) in the assay with UACC-257; > 100 µM (inactive) in the assay with HOP-92; 38.5 µM (inactive) in the assay with A498; > 100 µM (inactive) with SK-MEL-28; > 100 µM (inactive) with HOP-62; > 100 µM (inactive) in the assay on OVCAR-5. Also, the GI50 with MOLT-4, in the assay with NCI-H460, in the assay on UACC-62 and in the assay on M14 was > 100 µM (inactive) each time.
